{
  "source": "patent US11371055B2",
  "about": "“Herbicide resistance genes” (CORTEVA AGRISCIENCE LLC, priority 2005, dated 2022)",
  "key": {"[1]": {"tested_on": "Segregating T2 AAD-12 (v1) plants (pDAB724.01.1.20)", "experiment": "Foliar-applied auxinic herbicides on T2 Arabidopsis", "assay_type": "in vivo, Arabidopsis thaliana", "conditions": "Pyridyloxyacetic auxins", "method": "(§1) The ability of AAD-12 (v1) to provide resistance to other aryloxyalkanoate auxin herbicides in transgenic Arabidopsis was determined by foliar application of various substrates. T2 generation Arabidopsis seed was stratified, and sown into selection trays much like that of Arabidopsis (Example 6.4). A transformed-control line containing PAT and the insect resistance gene Cry1F was planted in a similar manner. Seedlings were transferred to individual 3-inch pots in the greenhouse. All plants were sprayed with the use of a track sprayer set at 187 L/ha. The plants were sprayed with a range of pyridyloxyacetate herbicides: 280-2240 g ae/ha triclopyr (Garlon 3A, Dow AgroSciences) and 280-2240 g ae/ha fluroxypyr (Starane, Dow AgroSciences); and the 2,4-D metabolite resulting from AAD-12 activity, 2,4-dichlorophenol (DCP, Sigma) (at a molar equivalent to 280-2240 g ac/ha of 2,4-D, technical grade DCP was used). All applications were formulated in water. Each treatment was replicated 3-4 times. Plants were evaluated at 3 and 14 days after treatment."}, "[2]": {"tested_on": "Pat/Cry1f-Control Arabidopsis", "experiment": "Foliar-applied auxinic herbicides on transformed control Arabidopsis", "assay_type": "in vivo, Arabidopsis thaliana", "conditions": "Pyridyloxyacetic auxins", "method": "as §1"}, "[3]": {"tested_on": "PAT/Cry1F-transformed Arabidopsis (auxin-sensitive transformed control)", "experiment": "T1 Arabidopsis postemergence herbicide dose response, transformed control", "assay_type": "in vivo, Arabidopsis thaliana", "method": "Seven days after planting (DAP) and again 11 DAP, T1 plants (cotyledon and 2-4-lf stage, respectively) were sprayed with a 0.2% solution of Liberty herbicide (200 g ai/L glufosinate, Bayer Crop Sciences, Kansas City, Mo.) at a spray volume of 10 ml/tray (703 L/ha) using a DeVilbiss compressed air spray tip to deliver an effective rate of 280 g ai/ha glufosinate per application. Survivors (plants actively growing) were identified 4-7 days after the final spraying and transplanted individually into 3-inch pots prepared with potting media (Metro Mix 360). Transplanted plants were covered with humidity domes for 3-4 days and placed in a 22° C. growth chamber as before or moved to directly to the greenhouse. Domes were subsequently removed and plants reared in the greenhouse (22±5° C., 50±30% RH, 14 h light:10 dark, minimum 500 μE/m^2 s^1 natural+supplemental light) at least 1 day prior to testing for the ability of AAD-12 (v1) (plant optimized gene) to provide phenoxy auxin herbicide resistance.\nT1 plants were then randomly assigned to various rates of 2,4-D. For Arabidopsis, 50 g ae/ha 2,4-D is an effective dose to distinguish sensitive plants from ones with meaningful levels of resistance. Elevated rates were also applied to determine relative levels of resistance (50, 200, 800, or 3200 g ac/ha). Tables 10 and 11 show comparisons drawn to an aryloxyalkanoate herbicide resistance gene (AAD-1 (v3)) previously described in PCT/US2005/014737.\nAll auxin herbicide applications were made using the DeVilbiss sprayer as described above to apply 703 L/ha spray volume (0.4 ml solution/3-inch pot) or applied by track sprayer in a 187 L/ha spray volume. 2,4-D used was either technical grade (Sigma, St. Louis, Mo.) dissolved in DMSO and diluted in water (<1% DMSO final concentration) or the commercial dimethylamine salt formulation (456 g ac/L, NuFarm, St Joseph, Mo.). Dichlorprop used was commercial grade formulated as potassium salt of R-dichlorprop (600 g ai/L, AH Marks). As herbicide rates increased beyond 800 g ae/ha, the pH of the spray solution became exceedingly acidic, burning the leaves of young, tender Arabidopsis plants and complicating evaluation of the primary effects of the herbicides. It became standard practice to apply these high rates of herbicides in 200 mM HEPES buffer, pH 7.5.\nThe first Arabidopsis transformations were conducted using AAD-12 (v1) (plant optimized gene). T1 transformants were first selected from the background of untransformed seed using a glufosinate selection scheme. Over 300,000 T1 seed were screened and 316 glufosinate resistant plants were identified (PAT gene), equating to a transformation/selection frequency of 0.10% which lies in the normal range of selection frequency of constructs where PAT+Liberty are used for selection. T1 plants selected above were subsequently transplanted to individual pots and sprayed with various rates of commercial aryloxyalkanoate herbicides. Table 11 compares the response of AAD-12 (v1) and control genes to impart 2,4-D resistance to Arabidopsis T1 transformants. Response is presented in terms of % visual injury 2 WAT. […] Since each T1 is an independent transformation event, one can expect significant variation of individual T1 responses within a given rate. An arithmetic mean and standard deviation is presented for each treatment. The range in individual response is also indicated in the last column for each rate and transformation. PAT/Cry1F-transformed Arabidopsis served as an auxin-sensitive transformed control. The AAD-12 (v1) gene imparted herbicide resistance to individual T1 Arabidopsis plants. Within a given treatment, the level of plant response varied greatly and can be attributed to the fact each plant represents an independent transformation event. Of important note, at each 2,4-D rate tested, there were individuals that were unaffected while some were severely affected. […]"}, "[4]": {"tested_on": "cotton cotyledonary segments", "assay_type": "cell-based", "method": "A dose response study was initiated to test multiple auxin alternatives as a substitute for the use of 2,4-D as a growth regulator in cotton. The alternative auxin tested were 2,4-dichlorprop, dicamba, and picloram. These compounds were tested at 0.2, 2.0, and 20.0 uM concentrations respectively. 2,4-D was used as the control treatment at 0.02 uM concentration. The medium used is the base medium for cotton callus induction (Example 12). Beyond the initial phase of culture, auxin is removed from the medium to prod the tissue toward the regeneration process."}, "[5]": {"conditions": "50 g ae/ha 2,4-D postemergence, 2 WAT"}, "[6]": {"conditions": "200 g ae/ha 2,4-D postemergence, 2 WAT"}, "[7]": {"conditions": "800 g ae/ha 2,4-D postemergence, 2 WAT"}, "[8]": {"conditions": "3200 g ae/ha 2,4-D postemergence, 2 WAT"}, "[9]": {"conditions": "50 g ae/ha R-dichlorprop postemergence"}, "[10]": {"conditions": "200 g ae/ha R-dichlorprop postemergence"}, "[11]": {"conditions": "800 g ae/ha R-dichlorprop postemergence"}, "[12]": {"conditions": "3200 g ae/ha R-dichlorprop postemergence"}},
  "note": "Marks after values point to notes of the source that are not given here.",
  "data": [
    {"smiles": "Nc1c(Cl)c(F)nc(OCC(=O)O)c1Cl", "note": "[Fluroxypyr]", "values": [
      {"measurement": "Ave % Injury 14DAT", "setting": "[1]; 280 g ae/ha foliar", "value": 0, "unit": "%"},
      {"measurement": "Ave % Injury 14DAT", "setting": "[1]; 560 g ae/ha foliar", "value": 2, "unit": "%"},
      {"measurement": "Ave % Injury 14DAT", "setting": "[1]; 1120 g ae/ha foliar", "value": 3, "unit": "%"},
      {"measurement": "Ave % Injury 14DAT", "setting": "[1]; 2240 g ae/ha foliar", "value": 5, "unit": "%"},
      {"measurement": "Ave % Injury 14DAT", "setting": "[2]; 280 g ae/ha foliar", "value": "75* %"},
      {"measurement": "Ave % Injury 14DAT", "setting": "[2]; 560 g ae/ha foliar", "value": "75* %"},
      {"measurement": "Ave % Injury 14DAT", "setting": "[2]; 1120 g ae/ha foliar", "value": "75* %"},
      {"measurement": "Ave % Injury 14DAT", "setting": "[2]; 2240 g ae/ha foliar", "value": "75* %"}
    ]},
    {"smiles": "O=C(O)COc1ccc(Cl)cc1Cl", "note": "[2,4-D, 2,4-dichlorophenoxyacetic acid]", "values": [
      {"measurement": "% Injury 20-40% (number of individuals)", "setting": "[3]; [5]", "value": 1},
      {"measurement": "% Injury <20% (number of individuals)", "setting": "[3]; [5]", "value": 4},
      {"measurement": "% Injury >40% (number of individuals)", "setting": "[3]; [5]", "value": 5},
      {"measurement": "% Injury Ave", "setting": "[3]; [5]", "value": 31, "unit": "%"},
      {"measurement": "% Injury 20-40% (number of individuals)", "setting": "[3]; [6]", "value": 0},
      {"measurement": "% Injury <20% (number of individuals)", "setting": "[3]; [6]", "value": 0},
      {"measurement": "% Injury >40% (number of individuals)", "setting": "[3]; [6]", "value": 10},
      {"measurement": "% Injury Ave", "setting": "[3]; [6]", "value": 70, "unit": "%"},
      {"measurement": "% Injury 20-40% (number of individuals)", "setting": "[3]; [7]", "value": 0},
      {"measurement": "% Injury <20% (number of individuals)", "setting": "[3]; [7]", "value": 0},
      {"measurement": "% Injury >40% (number of individuals)", "setting": "[3]; [7]", "value": 10},
      {"measurement": "% Injury Ave", "setting": "[3]; [7]", "value": 81, "unit": "%"},
      {"measurement": "% Injury 20-40% (number of individuals)", "setting": "[3]; [8]", "value": 0},
      {"measurement": "% Injury <20% (number of individuals)", "setting": "[3]; [8]", "value": 0},
      {"measurement": "% Injury >40% (number of individuals)", "setting": "[3]; [8]", "value": 10},
      {"measurement": "% Injury Ave", "setting": "[3]; [8]", "value": 91, "unit": "%"},
      {"measurement": "effect on cotton callus generation and growth", "setting": "[4]; highest concentration (20 uM)", "value": "inhibitory"}
    ]},
    {"smiles": "C[C@@H](Oc1ccc(Cl)cc1Cl)C(=O)O", "note": "[(R)-dichlorprop, R-2,4-dichlorophenoxypropionic acid]", "values": [
      {"measurement": "% Injury 20-40% (number of individuals)", "setting": "[3]; [9]", "value": 10},
      {"measurement": "% Injury <20% (number of individuals)", "setting": "[3]; [9]", "value": 0},
      {"measurement": "% Injury >40% (number of individuals)", "setting": "[3]; [9]", "value": 0},
      {"measurement": "% Injury Ave", "setting": "[3]; [9]", "value": 27, "unit": "%"},
      {"measurement": "% Injury 20-40% (number of individuals)", "setting": "[3]; [10]", "value": 0},
      {"measurement": "% Injury <20% (number of individuals)", "setting": "[3]; [10]", "value": 0},
      {"measurement": "% Injury >40% (number of individuals)", "setting": "[3]; [10]", "value": 10},
      {"measurement": "% Injury Ave", "setting": "[3]; [10]", "value": 69, "unit": "%"},
      {"measurement": "% Injury 20-40% (number of individuals)", "setting": "[3]; [11]", "value": 0},
      {"measurement": "% Injury <20% (number of individuals)", "setting": "[3]; [11]", "value": 0},
      {"measurement": "% Injury >40% (number of individuals)", "setting": "[3]; [11]", "value": 10},
      {"measurement": "% Injury Ave", "setting": "[3]; [11]", "value": 83, "unit": "%"},
      {"measurement": "% Injury 20-40% (number of individuals)", "setting": "[3]; [12]", "value": 0},
      {"measurement": "% Injury <20% (number of individuals)", "setting": "[3]; [12]", "value": 0},
      {"measurement": "% Injury >40% (number of individuals)", "setting": "[3]; [12]", "value": 10},
      {"measurement": "% Injury Ave", "setting": "[3]; [12]", "value": 90, "unit": "%"},
      {"measurement": "callus induction of cotyledonary segments", "setting": "[4]; concentrations tested up to 20 uM", "value": "not effective"}
    ]},
    {"smiles": "O=C(O)COc1nc(Cl)c(Cl)cc1Cl", "note": "[triclopyr]", "values": [
      {"measurement": "Ave % Injury 14DAT", "setting": "[1]; 280 g ae/ha foliar", "value": 0, "unit": "%"},
      {"measurement": "Ave % Injury 14DAT", "setting": "[1]; 560 g ae/ha foliar", "value": 3, "unit": "%"},
      {"measurement": "Ave % Injury 14DAT", "setting": "[1]; 1120 g ae/ha foliar", "value": 0, "unit": "%"},
      {"measurement": "Ave % Injury 14DAT", "setting": "[1]; 2240 g ae/ha foliar", "value": 3, "unit": "%"},
      {"measurement": "Ave % Injury 14DAT", "setting": "[2]; 280 g ae/ha foliar", "value": 52, "unit": "%"},
      {"measurement": "Ave % Injury 14DAT", "setting": "[2]; 560 g ae/ha foliar", "value": 58, "unit": "%"},
      {"measurement": "Ave % Injury 14DAT", "setting": "[2]; 1120 g ae/ha foliar", "value": "75* %"},
      {"measurement": "Ave % Injury 14DAT", "setting": "[2]; 2240 g ae/ha foliar", "value": "75* %"}
    ]}
  ]
}
